Laboratory results published in US7884099B2 (priority 2007, dated 2011).
Converted amounts (≈) assume the structure as drawn. Where two headings read alike, the source gives them in different places.

Columns and labels:
[1] = tested on: Staphylococcus aureus ATCC 29213; test: MIC by microbroth dilution, S. aureus ATCC 29213; type: cell-based
Description: (§1) Representative compounds are assayed for antimicrobial activity as follows: Minimum Inhibitory Concentrations (MICs) against Staphylococcus aureus ATCC 29213, its isogenic derivative, and Escherichia coli ATCC 25922 were determined by the microbroth dilution method, as per NCCLS guidelines (National Committee for Clinical Laboratory Standards 2000).

S. aureus rpoB^H481Y = test: MIC by microbroth dilution, rifamycin-resistant S. aureus rpoB H481Y; type: cell-based, Staphylococcus aureus; details: for MIC: Staphylococcus aureus, read-out: MIC S. aureus rpoB^H481Y
Description: as §1

[2] = tested on: S. aureus gyrA^S84L parC^S80F; test: MIC by microbroth dilution, quinolone-resistant S. aureus gyrA S84L parC S80F; type: cell-based, Staphylococcus aureus; details: for MIC: Staphylococcus aureus, read-out: MIC S. aureus gyrA^S84L parC^S80F
Description: as §1

[3] = tested on: S. aureus rpoB^H481Y gyrA^S84L parC^S80F; test: MIC by microbroth dilution, triple mutant S. aureus; type: cell-based; details: Staphylococcus aureus, read-out: MIC S. aureus rpoB^H481Y gyrA^S84L parC^S80F
Description: as §1

[4] = tested on: Escherichia coli ATCC 25922; test: MIC by microbroth dilution, E. coli ATCC 25922; type: cell-based
Description: as §1

[5] = tested on: Wild-type and Genetically-Defined Resistant Strains of Bacteria; test: Antibacterial activity against wild-type and genetically-defined resistant strains (overall statement on Table 1); type: cell-based; details: summary of Table 1
Description: as §1

[6] = ATCC29213, read-out: MIC S. aureus ATCC# 29213
[7] = ATCC25922, read-out: MIC E. coli ATCC# 25922
[8] = ATCC29213, wild-type, microbroth dilution, NCCLS, read-out: MIC S. aureus ATCC# 29213
[9] = ATCC25922, microbroth dilution, NCCLS, read-out: MIC E. coli ATCC# 25922

SMILES | MIC [1, 6] [µg/mL] | MIC (S. aureus rpoB^H481Y) [µg/mL] | MIC [2] [µg/mL] | MIC [3] [µg/mL] | MIC [4, 7] [µg/mL] | antibacterial activity (in words) [5] | MIC [1, 8] [µg/mL] | activity against quinolone-resistant S. aureus gyrA^S84L parC^S80F (in words) ([2]; mutations in gyrase and topoisomerase IV) | MIC [4, 9] [µg/mL] | activity against rifamycin-resistant S. aureus rpoB^H481Y (in words) (S. aureus rpoB^H481Y; mutation in RNA polymerase)
CO[C@H]1/C=C/O[C@@]2(C)Oc3c(C)c(O)c4c(=O)c(c5oc6cc(N7CCC(N(C)C8([C@@H]9CCN(c%10c(F)cn%11c(=O)c(C(=O)O)cc(C%12CC%12)c%11c%10C)C9)CC8)CC7)cc(O)c6nc-5c4c3C2=O)NC(=O)/C(C)=C\C=C\[C@H](C)[C@H](O)[C@@H](C)[C@@H](O)[C@@H](C)[C@H](OC(C)=O)[C@@H]1C [Example 1] | < 0.004 | 0.12 (≈ 0.0936 µM) | < 0.004 | 2 (≈ 1.56 µM) | 0.5 (≈ 0.39 µM) |  |  |  |  | 
COc1c(N2CCN(c3cc(O)c4nc5c6c7c8c(C)c(O)c6c(=O)c(c-5oc4c3)NC(=O)/C(C)=C\C=C\[C@H](C)[C@H](O)[C@@H](C)[C@@H](O)[C@@H](C)[C@H](OC(C)=O)[C@H](C)[C@@H](OC)/C=C/O[C@@](C)(O8)C7=O)CC2)c(F)cc2c(=O)c(C(=O)O)cn(C3CC3)c12 [Example 3, 5′-[4-(3-Carboxy-1-cyclopropyl-6-fluoro-8-methoxy-4-oxo-1,4-dihydroquinolin-7-yl)-piperazin-1-yl]-3′-hydroxy-benzoxazinorifamycin] | 0.008 (≈ 0.0069 µM) | 0.24 (≈ 0.207 µM) | 0.008 (≈ 0.0069 µM) | 8 (≈ 6.9 µM) | 4 (≈ 3.45 µM) | potent antibacterial activity |  |  |  | 
O=C(O)c1cn(C2CC2)c2cc(N3CCNCC3)c(F)cc2c1=O [ciprofloxacin, reference compound] |  | 0.24 (≈ 0.724 µM) | > 32 | > 32 |  |  | 0.24 (≈ 0.724 µM) | not as effective | 0.008 (≈ 0.0241 µM) | 
COc1c(N2CC[C@@H](C3(N(C)C4CCN(c5cc(O)c6nc7c8c9c%10c(C)c(O)c8c(=O)c(c-7oc6c5)NC(=O)/C(C)=C\C=C\[C@H](C)[C@H](O)[C@@H](C)[C@@H](O)[C@@H](C)[C@H](OC(C)=O)[C@H](C)[C@@H](OC)/C=C/O[C@@](C)(O%10)C9=O)CC4)CC3)C2)c(F)cc2c(=O)c(C(=O)O)cn(C3CC3)c12 [Example 2, (R)-5′-[4-[1-[1-(3-Carboxy-1-cyclopropyl-6-fluoro-8-methoxy-4-oxo-1,4-dihydro-quinoline-7-yl)-pyrrolidin-3-yl-cyclopropyl-methyl]-amino]-piperidin-1-yl]-3′-hydroxy-benzoxazinorifamycin] | 0.008 (≈ 0.00617 µM) | 0.5 (≈ 0.385 µM) | 0.016 (≈ 0.0123 µM) | 4 (≈ 3.08 µM) | 4 (≈ 3.08 µM) | potent antibacterial activity |  |  |  | 
CO[C@H]1/C=C/O[C@@]2(C)Oc3c(C)c(O)c4c(O)c(c(/C=N/N5CCN(C)CC5)c(O)c4c3C2=O)NC(=O)/C(C)=C\C=C\[C@H](C)[C@H](O)[C@@H](C)[C@@H](O)[C@@H](C)[C@H](OC(C)=O)[C@@H]1C [rifampin, reference compound] |  | > 64 | 0.008 (≈ 0.00972 µM) | > 64 |  |  | 0.008 (≈ 0.00972 µM) |  | 8 (≈ 9.72 µM) | not as effective
